From patent US12569506B2, “Methods of treating osteonecrosis with LLP2A-bisphosphonate compounds” (The Regents of the University of California, priority 2016, dated 2026)
“Also recorded” adds a separate entry of the source.

Experiments:
[1] = system: dexamethasone-treated mice; assay: 30 and 45 day prevention study: trabecular bone histology of distal femur epiphyses; format: in vivo, BALB/c mice
Experimental: The efficacy of LLP2A-Ale and hPTH (1-34) was evaluated over a 30 and 45 day study using a mouse model of glucocorticoid-induced osteonecrosis. Seven week-old male BALB/c mice were randomized into Placebo group (fresh water), glucocorticoid only (4 mg/L dexamethasone (Dex) in drinking water), Dex+250 μg/kg LLP2A-Ale, Dex+500 μg/kg LLP2A-Ale, or Dex+40 μg/kg hPTH (administered five times a week) for 30 or 45 days. At day 30 or 45, the mice were sacrificed. Study endpoints included histological evidence of osteonecrosis, bone mass, and prevalent blood vessels (CD31 and Endomucin expression) in the distal femur, and was performed as set forth in Example 2. Non-parametric Kruskal-Wallis tests were used to determine the differences between the groups.

[2] = system: glucocorticoid-treated mice; assay: 56 day mouse model of glucocorticoid-induced osteonecrosis: femur blood vessel / vascular density by microCT; format: in vivo
Experimental: FIG. 2. Blood vessel density of femurs from glucocorticoid-treated mice. 4 month old male mice were treated glucocorticoid (“GC”) or placebo for 56 days. At day 28 a group of glucocorticoid-treated mice were treated with LLP2A-Ale or PTH for an additional 28 days.
FIG. 3. Vascular density of femurs from glucocorticoid-treated mice. 4 month old male mice were treated with glucocorticoid or placebo for 56 days. At day 28 a group of glucocorticoid-treated mice were treated with LLP2A-Ale or PTH for an additional 28 days. At day 56 animals were given a contrast agent and then sacrificed and then the animals femurs were decalcified and then scanned by microCT.
The efficacy of LLP2A-Ale was evaluated using a mouse model of glucocorticoid-induced osteonecrosis. 4-month-old male mice were treated for 56 days with glucocorticoids. At day 28, a group of mice was treated with either LLP2A-Ale or PTH for an additional 28 days. Blood vessel density of the femur was measured after sacrifice by microCT according to published methods. […] Vascular density of the femurs of glucocorticoid-treated mice subsequently treated with LLP2A-Ale or PTH was also assessed by giving the mice a contrast agent, then sacrificing the mice, decalcifying the femurs, and scanning the femurs by microCT. […] Without being bound to a particular theory, it is believed that LLP2A-Ale promotes increased vascularity by bringing MSCs to the bone that is turning over with osteonecrosis, which stimulates new blood vessel formation, which in turn is needed to stimulate new bone formation in the osteonecrotic bone.

osteocytes = assay: Cortical bone osteocyte apoptosis (TUNEL) in glucocorticoid-treated mice; format: in vivo; settings: GC 56 days, one dose of LLP2A-Ale at day 28, sacrifice day 56, TUNEL (FIG. 5)
Experimental: FIG. 5. Cortical bone osteocyte apoptosis. Mice were treated with PL for 56 days, GC alone for 56 days or GC alone for 28 days, then GC plus one dose of LLP2A-Ale at day 28. Animals were sacrificed at day 56 and the percent of osteocytes that were apoptotic were measured.
Osteocytes die from loss of blood supply and also from glucocorticoid treatment. […] The animals were sacrificed at day 56, the bones were decalcified and then TUNEL assays were performed to determine the number of apoptotic osteocytes. Glucocorticoid treatment alone, at day 56 increased the number of osteocytes that were apoptotic.

Q: With `Cc1ccccc1NC(=O)Nc1ccc(CC(=O)N[C@@H](CCCCNC(=O)/C=C/c2cccnc2)C(=O)N[C@@H](CCCC(=O)O)C(=O)NC2(C(=O)NCCOCCOCCNC(=O)CCC(=O)NCCOCCOCCNC(=O)CCC(=O)N[C@@H](CCCCNC(=O)[C@H](N)CSC3CC(=O)N(CC4CCC(C(=O)NCCCC(O)(P(=O)(O)O)P(=O)(O)O)CC4)C3=O)C(N)=O)CCCCC2)cc1` (some centres unmarked) [LLP2A-Ale] as the compound, how does the Trabecular bone volume ([1]; day 30 and 45, Dex vs placebo, treated vs Dex (p<0.05)) read?
A: higher bone volume

Q: What about the Trabecular separation ([1]; vs Dex group, day 30 and 45 (p<0.05)) of the same compound?
A: lower trabecular separation

Q: And the “Blood vessel density of the femur” value ([2]; 4 month old male mice, GC 56 days, LLP2A-Ale or PTH from day 28 for 28 days, microCT after sacrifice (FIG. 2))?
A: significantly higher than the negative control; also recorded: significantly different from all other groups

Q: What about the “Vascular density of femurs” value ([2]; contrast agent at day 56, decalcified femurs scanned by microCT (FIG. 3), vs GC alone) of the same compound?
A: increased vascular density compared to glucocorticoid alone; also recorded: increased vascular density compared to GC alone

Q: What about the “Cortical bone osteocyte apoptosis (percent of osteocytes apoptotic)” value (osteocytes) of the same compound?
A: prevented osteocyte apoptosis
